Test results published in a melting point compilation (Tetko et al.).

Compared with O=[N+]([O-])C=Cc1cccc2ccccc12, Cn1cc(CC(=O)O)c2ccccc21 is higher in melting point: 87 to 89 °C for the first, 126 to 128 °C for the second.

First: CC(=O)CC(=O)Nc1ccc2nc(C)sc2c1
Second: CCC(=O)Nc1ccc(C#N)cc1
The melting point of the first is lower: 129 to 131 °C for the first, 174 to 176 °C for the second.

First: O=C(O)CCNS(=O)(=O)c1cccs1
Second: COc1ccc(C(=O)O)cc1S(=O)(=O)NC(C)(C)C
The melting point of the first is lower: 143 to 145 °C for the first, 218 to 220 °C for the second.

First: NC(=O)C1CCOC1 (stereo not drawn)
Second: O=C(O)c1ncoc1C1CCCO1 (stereo not drawn)
The melting point of the first is lower: 109 to 111 °C for the first, 125 to 127 °C for the second.

Compared with Cc1ccc(Oc2ccc(N)cc2)nc1, Nc1ccc(S(=O)(=O)Nc2cccnc2)cc1 is higher in melting point: 90 to 92 °C for the first, 256 to 258 °C for the second.

First: Cc1ccc(NC(=O)OC(C)(C)C)s1
Second: CCOc1ccc(C(C)(C)C(=O)O)cc1OCC
The melting point of the first is higher: 103 to 105 °C for the first, 74 to 76 °C for the second.

Compared with NS(=O)(=O)c1ccc(/C=C/C(=O)O)cc1, NS(=O)(=O)c1ccnc(Cl)c1 is lower in melting point: 274 to 276 °C for the first, 134 to 136 °C for the second.

Compared with Cc1ccc(S(=O)(=O)C2CCCCC2=O)cc1 (stereo not drawn), COc1ccc(N2CC(C(=O)O)CC2=O)cc1 (stereo not drawn) is higher in melting point: 77 to 79 °C for the first, 171 to 173 °C for the second.

First: SCCCNc1ncccn1
Second: O=C(O)c1csc(Nc2ccccn2)n1
The melting point of the first is lower: 45 to 47 °C for the first, 298 to 300 °C for the second.

Compared with O=Cc1c[nH]nc1-c1ccc2c(c1)OCO2, N#Cc1ccc2c(c1)CC(=O)N2 is higher in melting point: 188 to 190 °C for the first, 249 to 251 °C for the second.

First: O=C(O)c1ccc(Nc2ccc(F)c(F)c2)c([N+](=O)[O-])c1
Second: O=C(O)Cn1cc([N+](=O)[O-])ccc1=O
The melting point of the first is higher: 237 to 239 °C for the first, 225 to 227 °C for the second.

First: Cc1cc(Cl)c(C#N)c(C)n1
Second: Cc1cc(O)nc(C(C)(C)C)n1
The melting point of the first is lower: 65 to 67 °C for the first, 177 to 179 °C for the second.

First: O=c1[nH]c(-c2ccccc2F)cs1
Second: CN1CC(=O)Nc2ccccc2C1=O
The melting point of the first is lower: 187 to 189 °C for the first, 249 to 251 °C for the second.

First: CC1(NC(=O)c2ccnc(F)c2)CCCC1
Second: Cc1nn(C)c(C)c1C(=O)NC1(C(=O)O)CCCC1
The melting point of the first is lower: 78 to 80 °C for the first, 235 to 237 °C for the second.

First: Nc1cc(C2CCCO2)no1 (stereo not drawn)
Second: Nc1nonc1C(=O)N1CCOCC1
The melting point of the first is lower: 68 to 70 °C for the first, 136 to 138 °C for the second.

First: CC(=O)c1c(C)nc2ccccc2c1N
Second: O=c1c2ccccc2ncn1CCCl
The melting point of the first is higher: 152 to 154 °C for the first, 124 to 126 °C for the second.

Compared with N#CCC(=O)NCCc1ccccc1, N#CCC(=O)NCc1ccccc1 is higher in melting point: 91 to 93 °C for the first, 125 to 127 °C for the second.

Compared with Nc1ccc(C(=O)O)cc1CCCC(=O)O, NC(=O)CCc1ccc(C(=O)CCl)cc1 is lower in melting point: 203 to 205 °C for the first, 139 to 141 °C for the second.

Compared with Nc1n[nH]c2cccc(F)c12, COC(=O)c1cc(N)ccc1F is lower in melting point: 171 to 173 °C for the first, 84 to 86 °C for the second.

Compared with Nc1sc2c(c1C(=O)O)CCSC2, Nc1nnc(SCC(=O)O)s1 is higher in melting point: 169 to 171 °C for the first, 196 to 198 °C for the second.

Compared with CC(Cl)C(=O)NC1CCCC1 (stereo not drawn), CCCN1CCCC(C(=O)O)C1 (stereo not drawn) is higher in melting point: 111 to 113 °C for the first, 137 to 139 °C for the second.

Compared with CCOC(=O)Cc1ccc(F)cc1, COC(=O)c1ccc(N)c(OCC(F)(F)F)c1 is higher in melting point: 29 to 31 °C for the first, 117 to 119 °C for the second.

N#Cc1c([N+](=O)[O-])cccc1S(=O)(=O)Cl and COc1ccc(S(=O)(=O)Cl)c(C)c1F cannot be ordered by melting point: 89 to 91 °C for the first, 90 to 92 °C for the second.

Compared with Nc1ccccc1C(=O)Nc1ccncc1, O=C(Cc1ccccn1)c1ccc(Br)cc1 is lower in melting point: 144 to 146 °C for the first, 126 to 128 °C for the second.

Compared with CCC(C)C(NC1=NS(=O)(=O)c2ccccc21)C(=O)O (stereo not drawn), N#CCCn1cnc2ccccc2c1=O is lower in melting point: 203 to 205 °C for the first, 142 to 144 °C for the second.

Compared with O=S1CCNc2ccccc21 (stereo not drawn), CS(=O)(=O)c1ncc[nH]1 is higher in melting point: 201 to 203 °C for the first, 206 to 208 °C for the second.

First: CC(C)C(=O)NC(C)c1ccc(S(=O)(=O)Cl)s1 (stereo not drawn)
Second: CC(C)c1nc(C#N)c(NN)o1
The melting point of the first is lower: 68 to 70 °C for the first, 103 to 105 °C for the second.

First: NC1(C(=O)O)CCS(=O)(=O)CC1
Second: CC1(C(=O)O)COC(=O)OC1
The melting point of the first is higher: 294 to 296 °C for the first, 159 to 161 °C for the second.

First: ClCc1nc(-c2cc(Br)cs2)no1
Second: CC1(c2ccc(F)cc2F)NC(=O)NC1=O (stereo not drawn)
The melting point of the first is lower: 56 to 58 °C for the first, 194 to 196 °C for the second.
